One experiment has as its system Jurkat cells. The experiment can be described thus: Cell proliferation (CellTiter-Glo, 72 hour), Jurkat. It is filed as cell-based. The conditions noted are these: Homo sapiens, blood cancer cell line. For orientation: Cellular ATP, detected with luciferase, serves as a proxy for viable cell number.
In the next experiment the target is T1, CDK7 (Homo sapiens, UniProt P50613).
T1 construct: purchased Life Technologies (assay service)
The experiment can be described thus: Adapta kinase assay (Life Technologies), CDK7. The class given is biochemical.

A further experiment deals with RS4-11. The experiment can be described thus: Cell proliferation (CellTiter-Glo, 72 hour), RS4-11. The note with it: Homo sapiens, blood cancer cell line, read-out: RS4-11 inhibition of proliferation (IC50). The class given is cell-based.
Another experiment has as its system MV4-11. The experiment can be described thus: Cell proliferation (CellTiter-Glo, 72 hour), MV4-11. It is filed as cell-based. The note with it: Homo sapiens, blood cancer cell line, read-out: MV4-11 inhibition of proliferation (IC50).
For the next experiment, the system named is SKBR3. The experiment can be described thus: Cell proliferation (CellTiter-Glo, 72 hour), SKBR3. The class given is cell-based. The conditions noted are these: Homo sapiens, SK-BR-3, breast cancer cell line, read-out: SKBR3 inhibition of proliferation (IC50).
The next experiment relates to Hs863T. The experiment can be described thus: Cell proliferation (CellTiter-Glo, 72 hour), Hs863T. It is filed as cell-based. The note with it: Ewing's sarcoma cell line, read-out: Hs863T inhibition of proliferation (IC50).
In another experiment the test system is T47D. The experiment can be described thus: Cell proliferation (CellTiter-Glo, 72 hour), T47D. The class given is cell-based. The note with it: Homo sapiens, breast cancer cell line, read-out: T47D inhibition of proliferation (IC50).
Another experiment deals with THP-1. The experiment can be described thus: Cell proliferation (CellTiter-Glo, 72 hour), THP-1. It is filed as cell-based. The conditions noted are these: Homo sapiens, blood cancer cell line, read-out: THP-1 inhibition of proliferation (IC50).
The test system of another experiment is 143B. The experiment can be described thus: Cell proliferation (CellTiter-Glo, 72 hour), 143B. It is filed as cell-based. The note with it: Homo sapiens, osteosarcoma cell line, read-out: 143B inhibition of proliferation (IC50).
The test system of another experiment is SK-ES-1. The experiment can be described thus: Cell proliferation (CellTiter-Glo, 72 hour), SK-ES-1. The note with it: Homo sapiens, SK-ES1, Ewing's sarcoma cell line, read-out: SK-ES-1 inhibition of proliferation (IC50). The class given is cell-based.
In another experiment the test system is MCF10A. The experiment can be described thus: Cell proliferation (CellTiter-Glo, 72 hour), MCF10A. The note with it: Homo sapiens, MCF-10A, breast cancer cell lines table, read-out: MCF10A inhibition of proliferation (IC50). It is filed as cell-based.
Another experiment concerns MNNG-HOS Cl #5. The experiment can be described thus: Cell proliferation (CellTiter-Glo, 72 hour), MNNG-HOS Cl #5. The class given is cell-based. The note with it: osteosarcoma cell line, read-out: MNNG-HOS Cl#5 inhibition of proliferation (IC50).
A further experiment deals with MCF7. The experiment can be described thus: Cell proliferation (CellTiter-Glo, 72 hour), MCF7. The conditions noted are these: Homo sapiens, breast cancer cell line, read-out: MCF7 inhibition of proliferation (IC50). It is filed as cell-based.
In another experiment the test system is HL60. The experiment can be described thus: Cell proliferation (CellTiter-Glo, 72 hour), HL60. The class given is cell-based. The conditions noted are these: Homo sapiens, HL-60, blood cancer cell line, read-out: HL60 inhibition of proliferation (IC50).
For the next experiment, the system named is MDA-MB231. The experiment can be described thus: Cell proliferation (CellTiter-Glo, 72 hour), MDA-MB231. The conditions noted are these: Homo sapiens, MDA-MB-231, breast cancer cell line, read-out: MDA-MB231 inhibition of proliferation (IC50). It is filed as cell-based.
The next experiment relates to A673. The experiment can be described thus: Cell proliferation (CellTiter-Glo, 72 hour), A673. The class given is cell-based. The note with it: Homo sapiens, Ewing's sarcoma cell line, read-out: A673 inhibition of proliferation (IC50).
For the next experiment, the system named is RD-ES. The experiment can be described thus: Cell proliferation (CellTiter-Glo, 72 hour), RD-ES. It is filed as cell-based. The note with it: Ewing's sarcoma cell line, read-out: RD-ES inhibition of proliferation (IC50).
The subject of a further experiment is hTERT-HME1. The experiment can be described thus: Cell proliferation (CellTiter-Glo, 72 hour), hTERT-HME1. It is filed as cell-based. The note with it: breast cancer cell lines table, read-out: hTERT-HME1 inhibition of proliferation (IC50).
A further experiment deals with SAOS. The experiment can be described thus: Cell proliferation (CellTiter-Glo, 72 hour), SAOS. It is filed as cell-based. The conditions noted are these: osteosarcoma cell line, read-out: SAOS inhibition of proliferation (IC50).
The test system of a further experiment is Hs822T. The experiment can be described thus: Cell proliferation (CellTiter-Glo, 72 hour), Hs822T. The class given is cell-based. The note with it: Ewing's sarcoma cell line, read-out: Hs822T inhibition of proliferation (IC50).
Another experiment deals with CDK5/p25 (Homo sapiens, UniProt Q00535). The experiment can be described thus: Z'-Lyte kinase assay (Life Technologies), CDK5/p25.
CDK5/p25, sequence (Q00535 whole entry): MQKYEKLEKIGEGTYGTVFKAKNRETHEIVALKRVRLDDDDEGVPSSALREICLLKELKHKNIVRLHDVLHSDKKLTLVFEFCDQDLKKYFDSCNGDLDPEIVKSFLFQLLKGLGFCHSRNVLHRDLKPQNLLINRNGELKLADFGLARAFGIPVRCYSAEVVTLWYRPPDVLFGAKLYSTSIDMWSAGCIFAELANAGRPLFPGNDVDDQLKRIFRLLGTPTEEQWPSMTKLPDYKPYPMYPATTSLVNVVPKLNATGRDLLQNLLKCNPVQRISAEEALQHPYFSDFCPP
CDK5/p25, sequence (Q15078 99-307 partner limits assumed): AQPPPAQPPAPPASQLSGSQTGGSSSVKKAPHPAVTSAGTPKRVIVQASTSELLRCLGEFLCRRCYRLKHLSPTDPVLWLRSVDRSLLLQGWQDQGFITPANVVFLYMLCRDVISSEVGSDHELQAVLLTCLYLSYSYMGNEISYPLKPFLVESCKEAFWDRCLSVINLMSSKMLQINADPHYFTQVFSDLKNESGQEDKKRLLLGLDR
A further experiment addresses T2, MLK3 (Homo sapiens, UniProt Q16584).
T2 construct: purchased Life Technologies (assay service)
The experiment can be described thus: LanthaScreen Eu kinase assay (Life Technologies), MLK3. It is filed as binding. The note with it: Table 2; read-out: MLK3 (calculated IC50).

[1] abbreviates: Table 1C, co-factors cyclin H and MNAT1, read-out: CDK7 IC50.
Where [2] appears, read: Table 2, co-factors cyclin H and MNAT1, read-out: CDK7 (calculated IC50).

Like-named read-outs stand apart in the source and are kept apart here.

T1 sequence (P50613 whole entry): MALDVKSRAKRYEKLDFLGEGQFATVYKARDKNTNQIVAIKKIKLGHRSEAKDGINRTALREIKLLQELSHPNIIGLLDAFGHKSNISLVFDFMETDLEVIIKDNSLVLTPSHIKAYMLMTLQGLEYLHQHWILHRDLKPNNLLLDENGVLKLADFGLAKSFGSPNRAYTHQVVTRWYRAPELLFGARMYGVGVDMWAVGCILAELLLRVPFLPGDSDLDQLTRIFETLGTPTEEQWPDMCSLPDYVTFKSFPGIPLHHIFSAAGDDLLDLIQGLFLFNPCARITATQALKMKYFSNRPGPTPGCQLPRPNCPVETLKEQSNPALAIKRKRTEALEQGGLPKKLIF
T1 sequence (P51946 whole entry partner): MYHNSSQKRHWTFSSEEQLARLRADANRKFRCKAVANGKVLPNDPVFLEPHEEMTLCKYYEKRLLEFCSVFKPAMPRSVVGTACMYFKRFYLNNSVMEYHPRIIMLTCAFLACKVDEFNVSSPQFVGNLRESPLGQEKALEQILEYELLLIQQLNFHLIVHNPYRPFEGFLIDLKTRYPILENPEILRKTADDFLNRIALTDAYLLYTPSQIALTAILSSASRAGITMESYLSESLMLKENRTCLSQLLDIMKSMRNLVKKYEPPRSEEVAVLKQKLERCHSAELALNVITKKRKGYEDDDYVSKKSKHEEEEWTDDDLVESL
T1 sequence (P51948 whole entry partner): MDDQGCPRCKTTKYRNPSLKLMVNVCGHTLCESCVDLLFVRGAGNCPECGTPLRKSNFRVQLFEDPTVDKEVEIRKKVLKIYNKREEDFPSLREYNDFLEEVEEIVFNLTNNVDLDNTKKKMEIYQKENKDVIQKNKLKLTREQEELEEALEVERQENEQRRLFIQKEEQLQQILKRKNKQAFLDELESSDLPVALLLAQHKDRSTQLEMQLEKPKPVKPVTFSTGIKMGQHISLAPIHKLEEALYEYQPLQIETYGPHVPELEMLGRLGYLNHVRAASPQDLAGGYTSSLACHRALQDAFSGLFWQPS
T2 sequence (Q16584 whole entry): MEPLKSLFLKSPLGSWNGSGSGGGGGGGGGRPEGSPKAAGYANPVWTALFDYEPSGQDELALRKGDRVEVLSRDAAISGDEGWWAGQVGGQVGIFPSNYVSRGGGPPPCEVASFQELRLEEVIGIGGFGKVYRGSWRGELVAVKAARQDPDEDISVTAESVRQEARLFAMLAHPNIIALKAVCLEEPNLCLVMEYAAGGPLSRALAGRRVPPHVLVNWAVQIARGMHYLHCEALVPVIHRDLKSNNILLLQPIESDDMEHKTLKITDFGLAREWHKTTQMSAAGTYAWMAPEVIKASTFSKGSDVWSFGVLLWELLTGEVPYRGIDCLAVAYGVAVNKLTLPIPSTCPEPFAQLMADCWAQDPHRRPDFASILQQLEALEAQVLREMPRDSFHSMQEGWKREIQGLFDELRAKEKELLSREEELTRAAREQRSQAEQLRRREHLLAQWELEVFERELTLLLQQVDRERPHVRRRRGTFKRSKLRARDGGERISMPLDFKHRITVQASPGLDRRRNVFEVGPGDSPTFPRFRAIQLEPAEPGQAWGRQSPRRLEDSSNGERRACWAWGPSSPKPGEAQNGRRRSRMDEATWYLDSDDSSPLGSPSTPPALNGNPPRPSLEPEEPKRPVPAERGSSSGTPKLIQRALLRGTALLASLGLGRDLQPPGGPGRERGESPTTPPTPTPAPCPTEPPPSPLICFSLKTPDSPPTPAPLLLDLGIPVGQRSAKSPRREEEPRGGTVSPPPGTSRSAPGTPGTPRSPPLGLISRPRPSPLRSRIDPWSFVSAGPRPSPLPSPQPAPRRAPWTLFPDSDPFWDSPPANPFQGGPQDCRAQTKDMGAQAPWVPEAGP
Protocol for CDK5/p25: Compounds of the invention were assayed for activity against a variety of different kinases at Life Technologies™ (Grand Island, N.Y.) using their commercially available Adapta® (for CDK7, CDK9/cyclin T1, and IRAK1 kinases), Z′-Lyte® (for CDK1, CDK2, CDK5/p25, CDK5/p35, JNK1 and JNK2 kinases), and LanthaScreen Eu® (for CDK8, CDK9/cyclin K and MLK3) kinase assay services. Test compounds were tested at 100 nM and 1 μM final concentrations in 1% DMSO against all kinases except CDK7. For CDK7, test compounds were tested at concentrations ranging from 10 μM to 0.514 nM in a series of 3-fold serial dilutions. […] The co-factors used for each kinase in the assays were as follows: CDK1: cyclin B; CDK2: cyclin A; CDK5: p25 or p35 as indicated; CDK7: cyclin H and MNAT1; CDK8: cyclin C; CDK9: cyclin K or cyclin T1 as indicated; IRAK1: Histone H3 (1-20) peptide; JNK1: none required; JNK2: none required; MLK3: none required.

Regarding `C[Si](C)(C)C#CC(=O)Nc1ccc(C(=O)NC23CCCC(Nc4ncc(Cl)c(-c5c[nH]c6ccccc56)n4)(C2)C3)cc1` [Compound 130, N-(5-(5-chloro-4-(1H-indol-3-yl)pyrimidin-2-ylamino)bicyclo[3.1.1]heptan-1-yl)-4-(3-(trimethylsilyl)propiolamido)benzamide], the IC50 in the experiment on Jurkat cells was less than 0.5 µM; at CDK7 (setting [1]), less than 0.1 µM.
For `CN(C/C=C/C(=O)Nc1ccc(C(=O)N[C@H]2CCC[C@@H](Nc3ncc(Cl)c(-c4c[nH]c5ccccc45)n3)C2)cc1)CC(=O)O` [Compound 131, 2-(((E)-4-(4-((1S,3R)-3-(5-chloro-4-(1H-indol-3-yl)pyrimidin-2-ylamino)cyclohexylcarbamoyl)phenylamino)-4-oxobut-2-enyl)(methyl)amino)acetic acid] the same measures were less than 0.5 µM and less than 0.1 µM.
On the same counts, the results for `C=CC(=O)Nc1ccc(C(=O)N[C@H]2CCC[C@@H](Nc3ncc(Cl)c(-c4c[nH]c5ccccc45)n3)C2)c(N2CCOCC2)c1` [Compound 133, 4-acrylamido-N-((1S,3R)-3-(5-chloro-4-(1H-indol-3-yl)pyrimidin-2-ylamino)cyclohexyl)-2-morpholinobenzamide] are less than 0.5 µM and 0.1 to 1 µM.
On the same counts, the results for `C=CC(=O)Nc1cccc(C(=O)N[C@H]2CC[C@H](Nc3ncc(Cl)c(-c4c[nH]c5ccccc45)n3)CC2)c1` [Compound 135, 3-acrylamido-N-((trans)-4-(5-chloro-4-(1H-indol-3-yl)pyrimidin-2-ylamino)cyclohexyl)benzamide] are less than 0.5 µM and less than 0.1 µM.
On to `C=CC(=O)Nc1ccc(C(=O)N[C@H]2CCC[C@@H](Nc3ncc(F)c(-c4c[nH]c5ccccc45)n3)C2)cc1` [Compound 137, 4-acrylamido-N-((1S,3R)-3-(5-fluoro-4-(1H-indol-3-yl)pyrimidin-2-ylamino)cyclohexyl)benzamide], for which the IC50 was less than 0.5 µM in the experiment with Jurkat cells and 0.1 to 1 µM on CDK7 (setting [1]).
Regarding `C=CC(=O)Nc1ccc(C(=O)N[C@H]2CCC[C@@H](Nc3ncc(Cl)c(-c4cnn5ccccc45)n3)C2)cc1` [Compound 138, 4-acrylamido-N-((1S,3R)-3-(5-chloro-4-(pyrazolo[1,5-a]pyridin-3-yl)pyrimidin-2-ylamino)cyclohexyl)benzamide], the IC50 with Jurkat cells was less than 0.5 µM; on CDK7 (setting [1]), less than 0.1 µM.
Regarding `CN(C)C/C=C/C(=O)Nc1ccc(C(=O)N[C@H]2C[C@@H](Nc3ncc(Cl)c(-c4c[nH]c5ccccc45)n3)CC(F)(F)C2)cc1` [Compound 139], the IC50 in the experiment on Jurkat cells is 0.5 to 5 µM; on CDK7 (setting [1]), greater than 1 µM.
For `Cc1nc(C)c(-c2nc(NC3CCCC(NC(=O)c4ccc(NC(=O)/C=C/CN(C)C)cc4)C3)ncc2Cl)s1` (centres unmarked) [Compound 141] the same measures were less than 0.5 µM and less than 0.1 µM.
For `C=CC(=O)Nc1ccc(C(=O)NC2CCCC(Nc3ncc(Cl)c(-c4sc(C)nc4C)n3)C2)cc1` (centres unmarked) [Compound 142] the same measures were less than 0.5 µM and 0.1 to 1 µM.
As to `Cc1noc(C)c1-c1nc(N[C@@H]2CCC[C@H](NC(=O)c3ccc(NC(=O)/C=C/CN(C)C)cc3)C2)ncc1Cl` [Compound 144], the IC50 with Jurkat cells is less than 0.5 µM; on CDK7 (setting [1]), 0.1 to 1 µM.
Turning to `C=CC(=O)Nc1ccc(C(=O)N[C@H]2CCC[C@@H](Nc3ncc(Cl)c(-c4c(C)noc4C)n3)C2)cc1` [Compound 145], the values for the IC50 with Jurkat cells and at CDK7 (setting [1]) were less than 0.5 µM and less than 1 µM, respectively.
For `C=CC(=O)Nc1ccc(C(=O)N[C@H]2CCC[C@@H](Nc3ncc(C4CC4)c(-c4c[nH]c5ccccc45)n3)C2)cc1` [Compound 146] the same measures were 0.5 to 5 µM and 0.1 to 1 µM.
On the same counts, the results for `C=CC(=O)Nc1ccc(C(=O)N[C@H]2CC[C@@H](Nc3ncc(Cl)c(-c4c[nH]c5ccccc45)n3)CC2)cc1` [Compound 147] are less than 0.5 µM and less than 1 µM.
For the molecule `C=CC(=O)Nc1ccc(C(=O)N[C@H]2CCC[C@@H](Nc3ncc(Cl)c(-c4cn(C)c5ccccc45)n3)C2)cc1` [Compound 152], the IC50 was less than 0.5 µM with Jurkat cells and 0.1 to 1 µM at CDK7 (setting [1]).
As to `CN1CC[C@H](c2c(O)cc(O)c3c(=O)cc(-c4ccccc4Cl)oc23)[C@H](O)C1` [Flavopiridol, flavopiridol, reference compound], the IC50 with RS4-11 is less than 0.5 µM; with MV4-11, less than 0.5 µM; in the experiment on SKBR3, less than 0.5 µM; with Hs863T, greater than 5 µM; with T47D it was greater than 5 µM; with THP-1, less than 0.5 µM. Moreover, the IC50 is 0.5 to 5 µM in the experiment with 143B; less than 0.5 µM in the experiment with SK-ES-1; less than 0.5 µM in the experiment with MCF10A; 0.5 to 5 µM in the experiment with MNNG-HOS Cl #5; 0.5 to 5 µM in the experiment on MCF7; less than 0.5 µM with HL60. In addition, the IC50 in the experiment on MDA-MB231 was less than 0.5 µM; in the experiment with A673, less than 0.5 µM; in the experiment with RD-ES it was less than 0.5 µM; in the experiment with hTERT-HME1, less than 0.5 µM; in the experiment with SAOS, less than 0.5 µM; in the experiment with Hs822T, greater than 5 µM.
Regarding `CC(C)[C@]12O[C@H]1[C@@H]1O[C@]13[C@]1(O[C@H]1C[C@H]1C4=C(CC[C@@]13C)C(=O)OC4)[C@@H]2O` [Triptolide, triptolide, reference compound], the IC50 in the experiment with RS4-11 was less than 0.5 µM; in the experiment with MV4-11 it was less than 0.5 µM; with SKBR3, less than 0.5 µM; with Hs863T, greater than 5 µM; in the experiment with T47D it was greater than 5 µM; in the experiment on THP-1 it was less than 0.5 µM. For the same molecule, the IC50 in the experiment on 143B, with SK-ES-1, in the experiment with MCF10A, in the experiment with MNNG-HOS Cl #5, in the experiment with MCF7 and in the experiment on HL60 was less than 0.5 µM in each case. The IC50 with MDA-MB231 was less than 0.5 µM; with A673, less than 0.5 µM; in the experiment with RD-ES it was less than 0.5 µM; with hTERT-HME1, less than 0.5 µM; in the experiment with SAOS it was less than 0.5 µM; with Hs822T, 0.5 to 5 µM.
Regarding `CN(C)C/C=C/C(=O)Nc1ccc(C(=O)N[C@@H]2CCC[C@H](Nc3ncc(Cl)c(-c4c[nH]c5ccccc45)n3)C2)cc1` [compound 101], the IC50 is greater than 1 µM against CDK5/p25; 0.5 to 5 µM in the experiment on Jurkat cells; greater than 1 µM on MLK3; 0.1 to 1 µM on CDK7 (setting [1]); 0.1 to 1 µM on CDK7 (setting [2]).
As for `CN(C)C/C=C/C(=O)Nc1ccc(C(=O)N[C@@H]2CCC[C@@H](Nc3ncc(Cl)c(-c4c[nH]c5ccccc45)n3)C2)cc1` [compound 104], the IC50 at CDK5/p25 is greater than 1 µM; with Jurkat cells, less than 0.5 µM; on MLK3, greater than 1 µM; at CDK7 (setting [1]), less than 0.1 µM; on CDK7 (setting [2]), less than 0.1 µM.
Regarding `CN(C)C/C=C/C(=O)Nc1ccc(C(=O)NC2CCCC(Nc3ncc(Cl)c(-c4c[nH]c5ccccc45)n3)C2)c(F)c1` (centres unmarked) [compound 125], the IC50 with Jurkat cells was less than 0.5 µM; at CDK7 (setting [1]), less than 0.1 µM.
On the same counts, the results for `CN(C)C/C=C/C(=O)Nc1ccc(C(=O)NC2(C)CCCC(Nc3ncc(Cl)c(-c4c[nH]c5ccccc45)n3)C2)cc1` (centres unmarked) [compound 128] are less than 0.5 µM and less than 0.1 µM.
On the same counts, the results for `CN(C)C/C=C/C(=O)Nc1cccc(C(=O)NC2CCC(Nc3ncc(Cl)c(-c4c[nH]c5ccccc45)n3)CC2)c1` (centres unmarked) [compound 140] are less than 0.5 µM and less than 0.1 µM.
